Assay: Study on stability under influencing factors (high temperature, high humidity, light) of the crystal forms
Format: physicochemical
Procedure: In order to evaluate the solid stability of the crystal forms of the present application, the stability of each of the crystal form I, the crystal form A, the crystal form D, the crystal form E and the crystal form F under influencing factors (high temperature, high humidity and light) was investigated. Each of the crystal forms was stored under the high temperature condition (60±2° C., open (weighing bottle)), and the high humidity condition (room temperature, 92.5%±5% RH, open (weighing bottle) and packaged) for 5 days, 10 days and 30 days, and under the ICH light condition (5500 Lux, 0.9 w/m^2, closed (weighing bottle) and packaged) for 5 days and 10 days. The inner packaging material of the packaged sample was a medical low-density polyethylene bag, and the outer packaging material is a medical polyester/aluminum/polyethylene composite bag. The samples after the storage were characterized by properties, purity (HPLC), crystal form (XRD) and water content to detect the changes in the crystal form and purity. The results are shown in Tables 8-12 (“^#” indicates the ICH condition).

[1] = 92.5% RH, room temperature, open, 10 days
[2] = 92.5% RH, room temperature, open, 30 days
[3] = Light (ICH, 5500 Lux), closed, 10 days

Impurity content (60° C., open, 5 days): 1.23% | Crystal form change (60° C., open, 10 days): Unchanged | Impurity content (60° C., open, 10 days): 1.21% | Water content (60° C., open, 10 days): 0.19% | Crystal form change (60° C., open, 30 days): Unchanged | Impurity content (60° C., open, 30 days): 1.31% | Water content (60° C., open, 30 days): 0.15% | Crystal form change (92.5% RH, packaged, 30 days): Unchanged | Impurity content (92.5% RH, packaged, 30 days): 1.32% | Water content (92.5% RH, packaged, 30 days): 0.23% | Impurity content (92.5% RH, room temperature, open, 5 days): 1.23% | Crystal form change [1]: Unchanged | Impurity content [1]: 1.23% | Water content [1]: 0.36% | Crystal form change [2]: Unchanged | Impurity content [2]: 1.30% | Water content [2]: 0.31% | Crystal form change (Light (ICH), packaged, 10 days): Unchanged | Impurity content (Light (ICH), packaged, 10 days): 1.21% | Water content (Light (ICH), packaged, 10 days): 0.30% | Impurity content (Light (ICH, 5500 Lux), closed, 5 days): 1.18% | Crystal form change [3]: Unchanged | Impurity content [3]: 1.21% | Water content [3]: 0.34% | Impurity content (starting crystal form): 1.20% | Water content (starting crystal form): 0.39%
SMILES: Cn1cc(-c2nc(N=S(C)(C)=O)ccc2Oc2ccc(F)cc2F)c2cc[nH]c2c1=O [crystal form I]
